Measurements reported in US20200055839A1 (priority 2017, published 2020).

The molecules below were run on NL-RLuc virus (assay: Inhibition of HIV replication (NL-RLuc virus, luciferase readout in MT-2 cells)). Details: Human immunodeficiency virus 1, MT2, 120 h, MT-2 cells infected with NL-RLuc virus, 5 days of incubation, 10% FBS, at least 2 experiments.
Type: cell-based
In short: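 MT-2 cells infected with NL4-3-derived virus carrying Renilla luciferase in place of part of nef, grown 5 days with serial compound dilutions in RPMI 1640/10% FBS. Virus growth read as luciferase expression. EC50 from median effect equation, at least 2 experiments.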

Question: How did the EC50 turn out when `Cc1ncc(-c2cccc(C(N)=O)c2)c(N2CCC(C)(C)CC2)c1[C@H](OC(C)(C)C)C(=O)O` [Example 146, (2S)-2-(tert-Butoxy)-2-[5-(3-carbamoylphenyl)-4-(4,4-dimethylpiperidin-1-yl)-2-methylpyridin-3-yl]acetic acid] was run?
Answer: 142 nM

Question: For `CCCCCCCOc1ccc(-c2cnc(C)c([C@H](OC(C)(C)C)C(=O)O)c2N2CCC(C)(C)CC2)nc1` [Example 326, (2S)-2-(tert-butoxy)-2-[4′-(4,4-dimethylpiperidin-1-yl)-5-(heptyloxy)-6′-methyl-[2,3′-bipyridine]-5′-yl]acetic acid], which EC50 is on record?
Answer: 3 nM

Question: Which EC50 does the source give for `Cc1nc(CN2CCC3(CCC3)CC2)c(-c2ccc(F)c(F)c2)c(N2CCC(C)(C)CC2)c1[C@H](OC(C)(C)C)C(=O)O` [Example 195, (2S)-2-[6-({7-Azaspiro[3.5]nonan-7-yl}methyl)-5-(3,4-difluorophenyl)-4-(4,4-dimethylpiperidin-1-yl)-2-methylpyridin-3-yl]-2-(tert-butoxy)acetic acid] here?
Answer: 1 nM

Question: For `Cc1nc(-c2cn(C)cn2)c(-c2ccc(OCCc3ccc(F)cc3)cc2)c(N2CCC(C)(C)CC2)c1[C@H](OC(C)(C)C)C(=O)O` [Example 57, (S)-2-(tert-Butoxy)-2-(4-(4,4-dimethylpiperidin-1-yl)-5-(4-(4-fluorophenethoxy)phenyl)-2-methyl-6-(1-methyl-1H-imidazol-4-yl)pyridin-3-yl)acetic acid], which EC50 is on record?
Answer: 13 nM

Question: `Cc1ncc(-c2cc(F)cc(F)c2F)c(N2CCC(C)(C)CC2)c1[C@H](OC(C)(C)C)C(=O)O` [Example 174, (2S)-2-(tert-Butoxy)-2-[4-(4,4-dimethylpiperidin-1-yl)-2-methyl-5-(2,3,5-trifluorophenyl)pyridin-3-yl]acetic acid] was tested. Which EC50 did it give?
Answer: 11 nM

Question: How did the EC50 turn out when `COc1cccc(-c2cnc(C)c([C@H](OC(C)(C)C)C(=O)O)c2N2CCC(C)(C)CC2)n1` [Example 189, (S)-2-(tert-Butoxy)-2-(4′-(4,4-dimethylpiperidin-1-yl)-6-methoxy-6′-methyl-[2, 3′-bipyridin]-5′-yl)acetic acid] was run?
Answer: 41 nM

Question: Which EC50 does the source give for `Cc1nc(Nc2ncccn2)c(-c2ccc(OCCc3ccc(F)cc3)c(F)c2)c(N2CCC(C)(C)CC2)c1[C@H](OC(C)(C)C)C(=O)O` [Example 105, (S)-2-(tert-Butoxy)-2-(4-(4,4-dimethylpiperidin-1-yl)-5-(3-fluoro-4-(4-fluorophenethoxy)phenyl)-2-methyl-6-(pyrimidin-2-ylamino)pyridin-3-yl)acetic acid] here?
Answer: 4 nM

Question: Which EC50 does the source give for `Cc1ncc(-c2ccc(F)cc2)c(N2CCC(C)(C)CC2)c1[C@H](OC(C)(C)C)C(=O)O` [Example 135, (2S)-2-(tert-Butoxy)-2-[4-(4,4-dimethylpiperidin-1-yl)-5-(4-fluorophenyl)-2-methylpyridin-3-yl]acetic acid] here?
Answer: 3 nM

Question: For `Cc1nc(CN2CCC3(CCC3)CC2)c(-c2ccccc2)c(N2CCC(C)(C)CC2)c1[C@H](OC(C)(C)C)C(=O)O` [Example 190, (2S)-2-[6-({7-Azaspiro[3.5]nonan-7-yl}methyl)-4-(4,4-dimethylpiperidin-1-yl)-2-methyl-5-phenylpyridin-3-yl]-2-(tert-butoxy)acetic acid], which EC50 is on record?
Answer: 3 nM

Question: How did the EC50 turn out when `CCc1ccc(CCOc2ccc(-c3cnc(C)c([C@H](OC(C)(C)C)C(=O)O)c3N3CCC(C)(C)CC3)nc2)cc1` [Example 322, (2S)-2-(tert-butoxy)-2-[4′-(4,4-dimethylpiperidin-1-yl)-5-[2-(4-ethylphenyl)ethoxy]-6′-methyl-[2,3′-bipyridine]-5′-yl]acetic acid] was run?
Answer: 0.7 nM

Question: How did the EC50 turn out when `CCCCNc1ncc(-c2cnc(C)c([C@H](OC(C)(C)C)C(=O)O)c2N2CCC(C)(C)CC2)cc1F` [Example 414, (S)-2-(tert-Butoxy)-2-(6′-(butylamino)-4-(4,4-dimethylpiperidin-1-yl)-5′-fluoro-6-methyl-[3,3′-bipyridin]-5-yl)acetic acid] was run?
Answer: 3 nM

Question: Which EC50 does the source give for `Cc1ncc(-c2cnc(OCCc3ccc(F)c(F)c3)c(F)c2)c(N2CCC(C)(C)CC2)c1[C@H](OC(C)(C)C)C(=O)O` [Example 392, (2S)-2-(tert-butoxy)-2-{6′-[2-(3,4-difluorophenyl)ethoxy]-4-(4,4-dimethylpiperidin-1-yl)-5′-fluoro-6-methyl-[3,3′-bipyridine]-5-yl}acetic acid] here?
Answer: 1 nM

Question: `Cc1ncc(-c2ccc(O[C@@H](C)C(C)C)cc2)c(N2CCC(C)(C)CC2)c1[C@H](OC(C)(C)C)C(=O)O` [Example 363, (2S)-2-(tert-butoxy)-2-[4-(4,4-dimethylpiperidin-1-yl)-2-methyl-5-(4-{[(2S)-3-methylbutan-2-yl]oxy}phenyl)pyridin-3-yl]acetic acid] was tested. Which EC50 did it give?
Answer: 13 nM

Question: With `Cc1cccc(Cl)c1COc1ccc(-c2cnc(C)c([C@H](OC(C)(C)C)C(=O)O)c2N2CCC(C)(C)CC2)cn1` [Example 423, (S)-2-(tert-Butoxy)-2-(6′-((2-chloro-6-methylbenzyl)oxy)-4-(4,4-dimethylpiperidin-1-yl)-6-methyl-[3, 3′-bipyridin]-5-yl)acetic acid] as the molecule, how does the EC50 read?
Answer: 8 nM

Question: How did the EC50 turn out when `Cc1ncc(-c2ccc(/C=C\C(C)C)nc2)c(N2CCC(C)(C)CC2)c1[C@H](OC(C)(C)C)C(=O)O` [Example 422, (S,Z)-2-(tert-Butoxy)-2-(4-(4,4-dimethylpiperidin-1-yl)-6-methyl-6′-(3-methylbut-1-en-1-yl)-[3, 3′-bipyridin]-5-yl)acetic acid] was run?
Answer: 10 nM

Same assay, conditions: MT-2 cells infected with NL-RLuc virus, 5 days of incubation, 10% FBS, at least 2 experiments

Question: `Cc1ncc(-c2cnc(NCCc3ccc(F)cc3)c(F)c2)c(N2CCC(C)(C)CC2)c1[C@H](OC(C)(C)C)C(=O)O` [Example 416, (S)-2-(tert-Butoxy)-2-(4-(4,4-dimethylpiperidin-1-yl)-5′-fluoro-6′-((4-fluorophenethyl)amino)-6-methyl-[3, 3′-bipyridin]-5-yl)acetic acid] was tested. Which EC50 did it give?
Answer: 0.6 nM
